Test results from ChEMBL document CHEMBL4270577, “Synthesis, anticancer activity and molecular modeling studies of 1,2,4-triazole derivatives as EGFR inhibitors” (Eur J Med Chem, 2018).

How the values were obtained:
OVCAR-5 [1] = assay: Growth inhibition of human OVCAR5 cells at 10 uM incubated for 48 hrs by sulforhodamine B assay relative to control; type: functional; details: OVCAR-5, 48 h, read-out: GI
K562 = assay: Cytotoxicity against human K562 cells incubated for 48 hrs by sulforhodamine B assay; type: functional; details: K562, 48 h
MOLT-4 = assay: Cytotoxicity against human MOLT4 cells incubated for 48 hrs by sulforhodamine B assay; type: functional; details: MOLT-4, 48 h
A549 [2] = assay: Cytotoxicity against human A549/ATCC cells incubated for 48 hrs by sulforhodamine B assay; type: functional; details: A549, 48 h
HOP-62 = assay: Cytotoxicity against human HOP62 cells incubated for 48 hrs by sulforhodamine B assay; type: functional; details: HOP-62, 48 h
HOP-92 = assay: Cytotoxicity against human HOP92 cells incubated for 48 hrs by sulforhodamine B assay; type: functional; details: HOP-92, 48 h
NCI-H226 = assay: Cytotoxicity against human NCI-H226 cells incubated for 48 hrs by sulforhodamine B assay; type: functional; details: NCI-H226, 48 h
NCI-H23 = assay: Cytotoxicity against human NCI-H23 cells incubated for 48 hrs by sulforhodamine B assay; type: functional; details: NCI-H23, 48 h
NCI-H322M = assay: Cytotoxicity against human NCI-H322M cells incubated for 48 hrs by sulforhodamine B assay; type: functional
COLO 205 = assay: Cytotoxicity against human COLO205 cells incubated for 48 hrs by sulforhodamine B assay; type: functional; details: COLO 205, 48 h
HCC 2998 = assay: Cytotoxicity against human HCC2998 cells incubated for 48 hrs by sulforhodamine B assay; type: functional; details: HCC 2998, 48 h
HCT-15 = assay: Cytotoxicity against human HCT15 cells incubated for 48 hrs by sulforhodamine B assay; type: functional; details: HCT-15, 48 h
KM12 = assay: Cytotoxicity against human KM12 cells incubated for 48 hrs by sulforhodamine B assay; type: functional; details: KM12, 48 h
SW-620 = assay: Cytotoxicity against human SW620 cells incubated for 48 hrs by sulforhodamine B assay; type: functional; details: SW-620, 48 h
SF-295 = assay: Cytotoxicity against human SF295 cells incubated for 48 hrs by sulforhodamine B assay; type: functional; details: SF-295, 48 h
LOX IMVI = assay: Cytotoxicity against human LOXIMVI cells incubated for 48 hrs by sulforhodamine B assay; type: functional
MDA-MB-435 = assay: Cytotoxicity against human MDA-MB-435 cells incubated for 48 hrs by sulforhodamine B assay; type: functional; details: MDA-MB-435, 48 h
UACC-62 = assay: Cytotoxicity against human UACC62 cells incubated for 48 hrs by sulforhodamine B assay; type: functional; details: UACC-62, 48 h
IGROV-1 = assay: Cytotoxicity against human IGROV1 cells incubated for 48 hrs by sulforhodamine B assay; type: functional; details: IGROV-1, 48 h
OVCAR-4 = assay: Cytotoxicity against human OVCAR4 cells incubated for 48 hrs by sulforhodamine B assay; type: functional; details: OVCAR-4, 48 h
OVCAR-5 [3] = assay: Cytotoxicity against human OVCAR5 cells incubated for 48 hrs by sulforhodamine B assay; type: functional; details: OVCAR-5, 48 h
NCI/ADR-RES = assay: Cytotoxicity against human NCI/ADR-RES cells incubated for 48 hrs by sulforhodamine B assay; type: functional
SK-OV-3 = assay: Cytotoxicity against human SKOV3 cells incubated for 48 hrs by sulforhodamine B assay; type: functional; details: SK-OV-3, 48 h
ACHN = assay: Cytotoxicity against human ACHN cells incubated for 48 hrs by sulforhodamine B assay; type: functional
CAKI-1 = assay: Cytotoxicity against human Caki1 cells incubated for 48 hrs by sulforhodamine B assay; type: functional; details: CAKI-1, 48 h
PC-3 = assay: Cytotoxicity against human PC3 cells incubated for 48 hrs by sulforhodamine B assay; type: functional; details: PC-3, 48 h
DU-145 = assay: Cytotoxicity against human DU145 cells incubated for 48 hrs by sulforhodamine B assay; type: functional; details: DU-145, 48 h
Tubulin (Homo sapiens) = Tubulin (Homo sapiens) (UniProt P68371+Q9H4B7+P0DPH7+P68366+Q13509+Q71U36+P04350+Q3ZCM7+P07437+P68363+Q9BQE3+Q6PEY2+Q13885+Q9BVA1+Q9BUF5); assay: Inhibition of tubulin (unknown origin) polymerization assessed as polymerized tubulin level at 5 to 25 uM by fluorescence assay; type: protein-complex assay
A549 [4] = assay: Induction of apoptosis in human A549 cells assessed as early apoptotic cells at 1.4 uM after 24 hrs by Annexin V/propidium iodide staining based flow cytometric analysis (reference value: 0.22%); type: functional
A549 [5] = assay: Induction of apoptosis in human A549 cells assessed as late apoptotic cells at 1.4 uM after 24 hrs by Annexin V/propidium iodide staining based flow cytometric analysis (reference value: 0.08%); type: functional
A549 [6] = assay: Induction of apoptosis in human A549 cells assessed as viable cells at 1.4 uM after 24 hrs by Annexin V/propidium iodide staining based flow cytometric analysis (reference value: 98.03%); type: functional; details: A549, 24 h, read-out: Activity
A549 [7] = assay: Cell cycle arrest in human A549 cells assessed as accumulation at G1 phase at 1.4 uM after 24 hrs by propidium iodide staining based flow cytometry (reference value: 67.52%); type: functional
[8] = read-out: LC50 (the source's name)

Question: With `COc1ccc(-c2nc3sc(-c4ccc(Cl)cc4)cn3n2)cc1` as the molecule, how does the inhibition of growth at 10 µM (OVCAR-5 [1]) read?
Answer: 48%

Question: What about the GI50 (K562) of the same molecule?
Answer: 29.4 µM

Question: And the TGI (K562)?
Answer: > 50 µM

Question: What about the CC50 (K562; [8]) of the same molecule?
Answer: > 50 µM

Question: What about the GI50 (MOLT-4) of the same molecule?
Answer: 11.3 µM

Question: And the TGI (MOLT-4)?
Answer: > 50 µM

Question: And the CC50 (MOLT-4; [8])?
Answer: > 50 µM

Question: And the GI50 (A549 [2])?
Answer: 1.59 µM

Question: What about the TGI (A549 [2]) of the same molecule?
Answer: 5.89 µM

Question: What about the CC50 (A549 [2]; [8]) of the same molecule?
Answer: 46.9 µM

Question: What about the GI50 (HOP-62) of the same molecule?
Answer: 2.36 µM

Question: And the TGI (HOP-62)?
Answer: > 50 µM

Question: What about the CC50 (HOP-62; [8]) of the same molecule?
Answer: > 50 µM

Question: And the GI50 (HOP-92)?
Answer: 0.91 µM

Question: And the TGI (HOP-92)?
Answer: 7.61 µM

Question: What about the CC50 (HOP-92; [8]) of the same molecule?
Answer: > 50 µM

Question: What about the GI50 (NCI-H226) of the same molecule?
Answer: 11.1 µM

Question: And the TGI (NCI-H226)?
Answer: > 50 µM

Question: What about the CC50 (NCI-H226; [8]) of the same molecule?
Answer: > 50 µM

Question: And the GI50 (NCI-H23)?
Answer: 6.66 µM

Question: And the TGI (NCI-H23)?
Answer: > 50 µM

Question: And the CC50 (NCI-H23; [8])?
Answer: > 50 µM

Question: What about the GI50 (NCI-H322M) of the same molecule?
Answer: 1.76 µM

Question: And the TGI (NCI-H322M)?
Answer: > 50 µM

Question: What about the CC50 (NCI-H322M; [8]) of the same molecule?
Answer: > 50 µM

Question: And the GI50 (COLO 205)?
Answer: 2.56 µM

Question: And the TGI (COLO 205)?
Answer: > 50 µM

Question: What about the CC50 (COLO 205; [8]) of the same molecule?
Answer: > 50 µM

Question: And the GI50 (HCC 2998)?
Answer: > 50 µM

Question: What about the TGI (HCC 2998) of the same molecule?
Answer: > 50 µM

Question: And the CC50 (HCC 2998; [8])?
Answer: 39.4 µM

Question: What about the GI50 (HCT-15) of the same molecule?
Answer: 24.5 µM

Question: What about the TGI (HCT-15) of the same molecule?
Answer: > 50 µM

Question: And the CC50 (HCT-15; [8])?
Answer: > 50 µM

Question: What about the GI50 (KM12) of the same molecule?
Answer: 12.2 µM

Question: What about the TGI (KM12) of the same molecule?
Answer: > 50 µM

Question: And the CC50 (KM12; [8])?
Answer: > 50 µM

Question: And the GI50 (SW-620)?
Answer: 5.51 µM

Question: And the TGI (SW-620)?
Answer: > 50 µM

Question: And the CC50 (SW-620; [8])?
Answer: > 50 µM

Question: And the GI50 (SF-295)?
Answer: 2.81 µM

Question: And the TGI (SF-295)?
Answer: 31.8 µM

Question: What about the CC50 (SF-295; [8]) of the same molecule?
Answer: > 50 µM

Question: What about the GI50 (LOX IMVI) of the same molecule?
Answer: > 50 µM

Question: What about the TGI (LOX IMVI) of the same molecule?
Answer: > 50 µM

Question: And the CC50 (LOX IMVI; [8])?
Answer: > 50 µM

Question: What about the GI50 (MDA-MB-435) of the same molecule?
Answer: > 50 µM

Question: And the TGI (MDA-MB-435)?
Answer: > 50 µM

Question: And the CC50 (MDA-MB-435; [8])?
Answer: > 50 µM

Question: What about the GI50 (UACC-62) of the same molecule?
Answer: 8.24 µM

Question: What about the TGI (UACC-62) of the same molecule?
Answer: > 50 µM

Question: What about the CC50 (UACC-62; [8]) of the same molecule?
Answer: > 50 µM

Question: And the GI50 (IGROV-1)?
Answer: 1.15 µM

Question: And the TGI (IGROV-1)?
Answer: 8.13 µM

Question: What about the CC50 (IGROV-1; [8]) of the same molecule?
Answer: > 50 µM

Question: And the GI50 (OVCAR-4)?
Answer: 0.766 µM

Question: What about the TGI (OVCAR-4) of the same molecule?
Answer: 1.63 µM

Question: What about the CC50 (OVCAR-4; [8]) of the same molecule?
Answer: 3.45 µM

Question: And the GI50 (OVCAR-5 [3])?
Answer: 2.78 µM

Question: And the TGI (OVCAR-5 [3])?
Answer: > 50 µM

Question: What about the CC50 (OVCAR-5 [3]; [8]) of the same molecule?
Answer: > 50 µM

Question: What about the GI50 (NCI/ADR-RES) of the same molecule?
Answer: 3.75 µM

Question: What about the TGI (NCI/ADR-RES) of the same molecule?
Answer: > 50 µM

Question: What about the CC50 (NCI/ADR-RES; [8]) of the same molecule?
Answer: > 50 µM

Question: What about the GI50 (SK-OV-3) of the same molecule?
Answer: 11.7 µM

Question: And the TGI (SK-OV-3)?
Answer: > 50 µM

Question: What about the CC50 (SK-OV-3; [8]) of the same molecule?
Answer: > 50 µM

Question: What about the GI50 (ACHN) of the same molecule?
Answer: 0.927 µM

Question: And the TGI (ACHN)?
Answer: 2.02 µM

Question: And the CC50 (ACHN; [8])?
Answer: 4.41 µM

Question: And the GI50 (CAKI-1)?
Answer: 1.79 µM

Question: And the TGI (CAKI-1)?
Answer: 8.92 µM

Question: And the CC50 (CAKI-1; [8])?
Answer: 48.9 µM

Question: What about the GI50 (PC-3) of the same molecule?
Answer: > 50 µM

Question: What about the TGI (PC-3) of the same molecule?
Answer: > 50 µM

Question: What about the CC50 (PC-3; [8]) of the same molecule?
Answer: > 50 µM

Question: And the GI50 (DU-145)?
Answer: > 50 µM

Question: And the TGI (DU-145)?
Answer: > 50 µM

Question: And the CC50 (DU-145; [8])?
Answer: > 50 µM

Question: What about the Activity (Tubulin (Homo sapiens)) of the same molecule?
Answer: 1510 a.u.

Question: And the Activity (A549 [4])?
Answer: 4.23%

Question: What about the Activity (A549 [5]) of the same molecule?
Answer: 4.62%

Question: And the viability at 1.4 µM (A549 [6])?
Answer: 88%

Question: And the Activity (A549 [7])?
Answer: 58.11%
